Results from patent publication US12447167B2, “GM-CSF-producing t-cell control agent and Th1/Th2 immune balance regulator” (National Center of Neurology and Psychiatry, priority 2014, dated 2025).

System: GM-CSF-producing CD4-positive memory T-cells
Assay: GM-CSF-producing CD4-positive memory T-cells in PBMCs of MS patients after single oral dose (FACS)
Format: in vivo, human
Conditions: 0.3 mg single oral
Experimental: A single dose of compound 31, which is a synthetic glycolipid of the present invention, described in the first aspect was orally administered to each of 2 MS patients (subjects) shown in Table 2 above after obtainment of informed consent. The dose was set to 0.3 mg per person.
Subsequently, T-cell subfractions were prepared from the peripheral blood of each subject by using the density gradient centrifugation method. First, a total of 20 mL of blood was collected from the vein of each subject 24 hours (1st day), 48 hours (2nd day), 72 hours (3rd day), 168 hours (7th day), and 192 hours (8th day) after the administration of compound 31 by using two 10-mL heparin sodium-containing vacuum blood collection tubes. For a control, 20 mL of blood was similarly collected from the vein of each subject one day before the administration of compound 31.
Hereinafter, peripheral blood mononuclear cells (PBMCs) were collected by the same operation as in Example 1.
The collected PBMCs were stained with antibodies by the following method. First, 10 μL of a solution consisting of 8 μL of PBS containing 0.5% BSA/2 mM EDTA-2Na, 0.5 μL of APC-Cy7-anti-CD3 antibody (BioLegend, Inc.), 0.5 μL of ECD-anti-CD8 antibody (Beckman Coulter, Inc.), and 1 μL of PB-anti-CD45RA antibody (BioLegend, Inc.) was added to 2×10^6 cells of PBMCs, thoroughly mixed by vortexing, and then left on ice for 10 minutes. CD3 is a detection marker of T-cells, and CD3^+ cells indicate being T-cells. Also, CD45RA is a detection marker of naive T-cells, and CD45RA^+ cells indicate being naive T-cells. Also, CD45RA^− cells indicate being memory T-cells. Furthermore, CD8^− cells indicate being CD4^+ cells. 1 mL of PBS containing 0.5% BSA/2 mM EDTA-2Na was added, and after centrifugation at 1500 rpm for 5 minutes, a supernatant was removed by suction. Next, 100 μL of BD FIX buffer (Becton, Dickinson and Company) was added dropwise while vortexed, and then left on ice for 20 minutes. 1 mL of MACS buffer was added again, and after centrifugation at 1500 rpm for 5 minutes, a supernatant was removed by suction. Subsequently, 1 mL of 0.1% saponin was added, and the resultant was left at room temperature under light shielding for 2 minutes.
Subsequently, the resultant was dispensed as 250 μL (I group) and 750 μL (II group), and after centrifugation at 2200 rpm for 5 minutes, a supernatant was removed by suction.
For group I, 11 μL of a solution consisting of 7 μL of 0.1% saponin, 1 μL of PerCP-Cy5.5-anti-mouse IgG1 antibody (BioLegend, Inc.), 1 μL of Alexa 488-anti-mouse IgG1 antibody (BioLegend, Inc.), 1 μL of APC-anti-mouse IgG1 antibody (BioLegend, Inc.), and 1 μL of PE-anti-rat IgG1 antibody (Becton, Dickinson and Company) was added, thoroughly mixed by vortexing, and then left on ice for 10 minutes. […]

## CCCCCCCCCCCCCCCCCCCCCCCC(=O)NC(COC1OC(CO)C(O)C(O)C1O)[C@H](O)C(O)CCCCC (stereo in doubt) [compound 31, (2S,3S,4R)-1-O-(α-D-galactosyl)-2-(N-tetracosanoylamino)-1,3,4-nonanetriol]
After administration vs day-1
  proportion of GM-CSF-producing CD4-positive memory T-cells in PBMCs: decreased
Day 1, GM-CSF-producing CD4-positive memory T-cells in PBMCs, day −1 value 9.64
  Abundance ratio of mCD4T (%): 6.035%
Day 3, day −1 value 9.64
  Abundance ratio of mCD4T (%): 6.76%
Day 7, day −1 value 9.64
  Abundance ratio of mCD4T (%): 14.325%
